Data on eleven compounds can be found in US20110306665A1, “COSMETIC PREPARATION, METHOD FOR PRODUCING SAME, COMPOSITION FOR COSMETIC PREPARATIONS, COSMETIC PREPARATION CONTAINING THE COMPOSITION FOR COSMETIC PREPARATIONS AND METHOD FOR PRODUCING SAME, AND CLEANSER FOR INDUSTRIAL USE” (The Nisshin OilliO Group, Ltd., priority 2009, published 2011).

Data set [1] in a line: Moisturizing properties of cosmetic preparation compositions (massage oil, panel). Format: in vivo, human. On the set-up: key: Good: Very soft and moistened touch was felt.; Moderate: Soft and moistened touch was felt.; Poor: No moistened touch was felt. The settings on record: neat cosmetic preparation composition (massage oil); 0.05 g, rubbed twenty times, wiped; seven panelists. The protocol: In Example 12, the PDO diisostearate obtained from Synthesis Example 1 was used as a cosmetic preparation composition (moisturizing ingredient) for a moisturizing cosmetic preparation (massage oil), and the moisturizing properties and the feeling of use thereof were evaluated.
The insides of the arms of seven panelists were washed with soap and water, and in addition, the washed surfaces were wiped with ethanol and naturally dried. Thereafter, each of the thus washed surfaces was evenly divided into eight equal areas, to which 0.05 g of the respective cosmetic preparation compositions of Example 12, and Comparative Examples 4 to 7 and 4A to 4C, was applied and massage was done by gently rubbing with a finger twenty times. Thereafter, the area was wiped with a dry cloth. On completion of this wiping, the moisturizing properties and the feeling of use of the respective cosmetic preparation compositions were evaluated in accordance with the same criteria as those of the moisturizing gels of Examples 6 to 8 mentioned above.

Data set [2] is described as follows: Viscosity by stress-controlled rheometer at 20° C. The data set is classed as physicochemical. As to the method: (§1) Next, the viscosity and the friction coefficient of the cosmetic preparation compositions of Example 12 and Comparative Examples 4 to 7 and 4A to 4C were measured.
The viscosity was measured by using a stress-controlled rheometer (Product No. RheoStress RS1, with a C60/2 Ti sensor, a product of Haake Company) at 20° C.

A short description of data set [3]: Friction coefficient on artificial leather (friction tester). Format: physicochemical. The settings on record: 5 μL on artificial leather, pressure of 100 g. As to the method: as §1
The friction coefficient was measured by such a way that: 5 μL of each cosmetic preparation composition was applied to the surface of an artificial leather (Product Name: Supplale, a product of Idemitsu Technofine Co., Ltd.), and the applied surface was measured for the friction coefficient and the change in the value of the friction coefficient, by using a friction tester (Type: TL201Ts, a product of Trinity-Lab Co., Ltd.) with a pressure of 100 g.

The nature of data set [4]: Low irritation properties: 24 hours airtight application with Finn Chamber (panel). Format: in vivo, human. As to the method: Moreover, the low irritation properties of the respective cosmetic preparation compositions as an ink remover ingredient were evaluated in the following manner. The insides of the arms of seven panelists were washed with soap and water, and in addition, the washed surfaces were wiped with ethanol and naturally dried. Next, each of the thus washed surfaces was evenly divided into seven equal areas, to which 0.01 g of the respective cosmetic preparation compositions of Examples 13 and 13A to 13D, and Comparative Examples 8 and 9, was applied airtightly by using Finn Chamber (a product of Epitest Ltd Oy). After 24 hours, the Finn Chamber and the cosmetic preparation compositions were taken off. After 1 hour, the condition of the skin was observed. The low irritation properties of the respective cosmetic preparation compositions as an ink remover ingredient were evaluated in accordance with the following criteria. <Evaluation Criteria of Low Irritation Properties> Good: No change was found in the skin of the airtightly applied part. Moderate: A slight rash was found in the skin of the airtightly applied part.

Data set [5] can be described thus: Cleansing properties: removal of ink of an oil paint pen from the skin (panel). The settings on record: black oil paint pen line on inside of arm, rubbed thirty times at about 200 g; seven panelists. The data set is classed as in vivo, human. As to the method:
In Example 13, the cleansing properties and the low irritation properties of the PDO-C8/C10 diester obtained from Synthesis Example 2 as a cosmetic preparation composition for a cosmetic preparation to be used for the purpose of removing an ink of an oil paint pen (ink remover ingredient) from the skin, were evaluated. The insides of the arms of seven panelists were washed with soap and water, and in addition, the washed surfaces were wiped with ethanol and naturally dried. Thereafter, using a black oil paint pen (Product Name: […] product of Zebra Co., Ltd.), a line was painted respectively on the washed surfaces of the insides of their arms. Next, the painted line was evenly divided into seven equal areas. […] From the proportion of the line painted with the oil paint pen which had been able to be removed by this removal operation, the cleansing properties of the respective cosmetic preparation compositions as an ink remover ingredient were evaluated in accordance with the following criteria. The results of their averages are shown in Table 14. <Evaluation Criteria of Cleansing Properties> Excellent: High cleansing properties, meaning that a proportion of 75 to 100% in the line painted with the oil paint pen was able to be removed. Good: Relatively high cleansing properties, meaning that a proportion of 50 to 75% in the line painted with the oil paint pen was able to be removed. Moderate: Some cleansing properties, meaning that only a proportion of 25 to 50% in the line painted with the oil paint pen was able to be removed. Poor: Weak cleansing properties, meaning that only a proportion of 0 to 25% in the line painted with the oil paint pen was able to be removed.

Data set [6] can be described thus: Cleansing properties of industrial use cleansers: oil paint pen ink on coated steel panel. The settings on record: industrial use cleanser; black oil paint pen line on coated steel panel, rubbed thirty times at about 200 g. The protocol:
The cleansing properties of the respective industrial use cleansers as an agent to remove an oil soluble colorant from a coated steel panel were evaluated in the following manner.
First, an electro-galvanized steel panel was coated with commercially available automotive paints, namely, a primer surfacer (Product Name: Primer White (a product of Musashi Holt Co., Ltd.)), a white automotive paint (Product Name: Antirust Paint (Color No. 041) (a product of Musashi Holt Co., Ltd.)), and a clear paint (Product Name: Topcoat Clear (a product of Musashi Holt Co., Ltd.)), by spraying according to the usage instruction of each product, and dried at 25° C. for 24 hours. By so doing, a coated steel panel for the test was obtained.
Next, using a black oil paint pen (Product Name: Mckee Care, a product of Zebra Co., Ltd.), a line was painted on the surface of the coated steel panel, and dried at 25° C. for 24 hours.
Subsequently, the painted line was evenly divided into seven equal areas. Each area was rubbed with an absorbent cotton that had been impregnated with, but to a degree which would not allow a leakage of, the industrial use cleanser of Examples 14, 14A, and 14B, or the oil agent of Comparative Examples 10, 11, 11A, and 11B, while loading a pressure of about 200 g in a reciprocating manner thirty times. From the proportion of the ink of the line painted with the oil paint pen which had been able to be removed by this removal operation, the cleansing properties of the respective industrial use cleansers of Examples 14, 14A, and 14B, or the respective oil agents of Comparative Examples 10, 11, 11A, and 11B, as the agent to remove the oil soluble colorant, were evaluated by eye in accordance with the following criteria.
<Evaluation Criteria of Cleansing Properties>
Excellent: High cleansing properties, meaning that a proportion of 75 to 100% in the line painted with the oil paint pen on the coated steel panel was able to be removed.
Good: Relatively high cleansing properties, meaning that a proportion of 50 to 75% in the line painted with the oil paint pen on the coated steel panel was able to be removed.
Moderate: Some cleansing properties, meaning that only a proportion of 25 to 50% in the line painted with the oil paint pen on the coated steel panel was able to be removed.
Poor: Weak cleansing properties, meaning that only a proportion of 0 to 25% in the line painted with the oil paint pen on the coated steel panel was able to be removed.
The cleansing properties and the low corrosion properties of the respective industrial use cleansers as an agent to remove an oil soluble colorant for a coated steel panel were evaluated in the same manner as those of the industrial use cleanser in Example 14. […]

[7] abbreviates: 0.01 g airtight in Finn Chamber 24 hours, skin observed 1 hour after removal, seven panelists.

In the case of `CCCCCCCCCCCCCCCCCC(=O)OCCCOC(=O)CCCCCCCCCCCCCCCCC` [Comparative Example 4A, PDO distearate], the Moisturizing properties entry in data set [1] is “Moderate”. Moreover, the “Viscosity (mPa · s) (20° C.)” value in data set [2] is “Not measurable”.
With `CC(CCC(C(=O)OCCCOC(=O)C(CCC(C)CC(C)(C)C)C(C)CC(C)(C)C)C(C)CC(C)(C)C)CC(C)(C)C` (stereo not drawn) [Comparative Example 4B], in data set [3], the “Changed value of friction coefficient” value is 0.0080 and the Friction coefficient is recorded as 0.170. Also, the Moisturizing properties entry in data set [1] is listed as “Good”. In data set [2], the “Viscosity (mPa · s) (20° C.)” value came to 1003 mPa · s.
On to `CC(C)CCCC(C)CCCC(C)CCCCC(C)CCCC(C)CCCC(C)C` (stereo not drawn) [Comparative Example 5, squalane], for which, in data set [3], the “Changed value of friction coefficient” value worked out at 0.0062 and the Friction coefficient amounted to 0.155. Moreover, the Moisturizing properties entry in data set [1] was “Good”. Besides, in data set [2], the “Viscosity (mPa · s) (20° C.)” value is on record as 36.0 mPa · s.
Take `CC(C)CCCCCCOC(=O)CCCCCC(C)C` [Comparative Example 8, isononyl isononanoate, reference compound]: the “Condition of the skin of the airtightly applied part” value in data set [4] (0.01 g airtight in Finn Chamber 24 hours, skin observed 1 hour after removal) is given as “a notable rash was found”. Besides, in data set [4] (setting [7]), the Low irritation properties entry is on record as “Poor”. The Cleansing properties result in data set [5] is recorded as “Good (Relatively high cleansing properties, meaning that a proportion of 50 to 75% in the line painted with the oil paint pen was able to be removed.)”.
With `CCO` [Comparative Example 10, ethanol, reference compound], in data set [6], the Cleansing properties entry is recorded as “Excellent (High cleansing properties, meaning that a proportion of 75 to 100% in the line painted with the oil paint pen on the coated steel panel was able to be removed.)”.
With `CCCCCCCC(=O)OCCCOC(=O)CCCCCCC` [Example 13A, PDO-di-n-Octanoic Acid Ester], the Cleansing properties result in data set [6] is on record as “Excellent (High cleansing properties, meaning that a proportion of 75 to 100% in the line painted with the oil paint pen on the coated steel panel was able to be removed.)”; in data set [5], “Excellent (High cleansing properties, meaning that a proportion of 75 to 100% in the line painted with the oil paint pen was able to be removed.)”. For the same compound, in data set [4] (setting [7]), the Low irritation properties result was “Moderate”.
Regarding `CCCCCCCCCC(=O)OCCCOC(=O)CCCCCCCCC` [Example 13D, PDO-di-n-decanoic acid ester], the Cleansing properties entry was “Poor (Weak cleansing properties, meaning that only a proportion of 0 to 25% in the line painted with the oil paint pen on the coated steel panel was able to be removed.)” in data set [6] and “Poor (Weak cleansing properties, meaning that only a proportion of 0 to 25% in the line painted with the oil paint pen was able to be removed.)” in data set [5]. Besides, in data set [4] (in vivo), the Low irritation properties result is “Good”.
PDO-C8/C10 diester [Example 13]: the Cleansing properties entry is recorded as “Excellent (High cleansing properties, meaning that a proportion of 75 to 100% in the line painted with the oil paint pen on the coated steel panel was able to be removed.)” in data set [6] and “Excellent (High cleansing properties, meaning that a proportion of 75 to 100% in the line painted with the oil paint pen was able to be removed.)” in data set [5]. For the same compound, the Low irritation properties result in data set [4] (setting [7]) is listed as “Good”.
PDO-C8/C10=25:75 diester [Example 13C]: the Cleansing properties entry is “Moderate (Some cleansing properties, meaning that only a proportion of 25 to 50% in the line painted with the oil paint pen on the coated steel panel was able to be removed.)” in data set [6] and “Moderate (Some cleansing properties, meaning that only a proportion of 25 to 50% in the line painted with the oil paint pen was able to be removed.)” in data set [5]. In addition, in data set [4] (setting [7]), the Low irritation properties result is on record as “Good”.
For PDO-C8/C10=50:50 diester [Example 13B], the Cleansing properties entry in data set [6] is “Good (Relatively high cleansing properties, meaning that a proportion of 50 to 75% in the line painted with the oil paint pen on the coated steel panel was able to be removed.)”; in data set [5] it was “Good (Relatively high cleansing properties, meaning that a proportion of 50 to 75% in the line painted with the oil paint pen was able to be removed.)”. Also, the Low irritation properties entry in data set [4] (setting [7]) was “Good”.
As to “PDO-Garbett isostearic acid diester [Comparative Example 4C]”, in data set [3], the “Changed value of friction coefficient” value is recorded as 0.0056 and the Friction coefficient is 0.147. Further, the Moisturizing properties result in data set [1] is listed as “Poor”. The “Viscosity (mPa · s) (20° C.)” value in data set [2] is 57.5 mPa · s.
